Data as given in patent publication US7863325B2, “Crystalline genistein sodium salt dihydrate” (Axcentua Pharmaceuticals AB, priority 2008, dated 2011).
In brackets after ≈: the same amount, converted by molar mass. Where two headings read alike, the source gives them in different places.

Assays:
[1] = rat, mean ± SD, n = 3
Experimental: Preparation of Dosing Solutions for In-Vivo Study: Genistein and Crystalline genistein sodium salt dihydrate were stored at room temperature under desiccant and protected from light. The dosing solutions were prepared fresh from powders on the day of dosing. The dosing solution for intravenous administration (IV) was prepared at 1 mg/mL (free acid) in 50:50 DMSO:saline. The dosing solutions for intraduodenal administration (ID) were prepared at 2 mg/mL (genistein free acid) in a 0.2% sodium carboxymethyl cellulose (Na CMC) solution in water.
Animal Dosing: The pharmacokinetics of genistein was evaluated in fasted male Sprague-Dawley rats. Each animal was fitted with a jugular vein cannula (JVC) for blood sampling. Animals intended for intravenous dosing were fitted with an additional JVC for dose administration. Animals intended for intraduodenal dosing were fitted with an intraduodenal cannula (IDC) for dose administration. Surgically modified animals were housed one per cage. All animals were supplied with a commercial rodent diet (LabDiet, Certified Rodent Diet #5002) ad libitum prior to study initiation. […] Water was supplied ad libitum.
Intraduodenal dosing solutions were administered as a single bolus dose at time zero on the day of dosing. Intravenous doses were administered as a slow IV injection over approximately 1 minute. Blood sampling times began at the end of the infusion. Blood samples were collected.
Each blood sample was collected from the rats via a jugular vein cannula and placed into chilled polypropylene tubes containing sodium heparin as an anticoagulant. Samples were centrifuged at a temperature of 4° C. and at a speed of 13,000 rpm for 5 minutes. Samples were maintained chilled throughout processing. Each plasma sample was split into two aliquots. The first aliquot contained 50 μL of plasma. All remaining plasma volume was used for the second aliquot. Samples were then placed on dry ice, and stored in a freezer set to maintain −60° C. to −80° C. The total concentration of genistein in plasma samples were analyzed by LC-MS/MS after an overnight incubation with glucuronidase/arylsulfatase enzyme mixture. Pharmacokinetic parameters were calculated using the WinNonlin software.
Analysis of Plasma Samples: An LC-MS/MS analytical method for the determination of genistein in rat plasma was developed. Prior to sample analysis, a standard curve was analyzed to determine the specificity, range, and linearity of the method. Total genistein in plasma samples was determined by pre-treating all samples with β-glucuronidase/arylsulfatase enzymes and incubating prior to analysis. Incubation with the enzyme mix deconjugated any glucuronide or sulfate metabolites of genistein back to the parent form.
Acceptance Criteria for LC-MS/MS Analysis: One standard curve was dispersed throughout each analytical run. At least ⅝ of the standards must be accurate to within ±20%, except at the LLOQ where ±25% is acceptable, in order for the run to pass.
Pharmacokinetic Analysis: Individual plasma concentrations versus time data for genistein were subjected to non-compartmental analysis using the pharmacokinetic program WinNonlin v. […] Plasma concentrations below the limit of quantitation (10 ng/mL) were assigned a value of zero for PK analysis only.

[2] = cited from earlier work
[3] = SuperSol 1000 kinetic and equilibrium solubility assay
[4] = Solubility in different solvents (aliquot addition until dissolution); format: physicochemical
Experimental: Solubility in different solvents: Solubility in different organic solvents was measured using the following protocol. Approximately 25 mg portions of genistein and crystalline genistein sodium dihydrate salt were placed in 48 different vials, separately. 5 volume aliquots of each solvent were added exclusively to a vial. Between each addition, the mixture was checked for dissolution and if no dissolution was apparent, the procedure was continued until dissolution was observed or when 50 volumes had been added.

[5] = Aqueous solubility (slurry shaken ca. 24 hours, filtered, HPLC); format: physicochemical
Experimental: Aqueous Solubility: Aqueous solubility was measured using the following protocol. Slurries of genistein and of crystalline genistein sodium dihydrate salt were made up in aqueous media in which pH was set at 4.5, 6.7, and 7.5, each slurry was shaken at ambient temperature for ca. 24 hours and then filtered using a 0.2 μm filter into a clean vial. The saturated solutions were then diluted and analyzed for API (genistein) content using N-Ac-DL-Methionine on a Chirobiotic T HPLC column and UV detector set at λmax=270 nm. The mobile phase was acetonitrile/water run in isocratic mode over a 30 minute period. The results are presented in Table 3, (BDL=below detection limits).

SMILES: O=c1c(-c2ccc(O)cc2)coc2cc(O)cc(O)c12 [Genistein, 4′,5,7-trihydroxyisoflavone-5,7-dihydroxy-3-(4-hydroxyphenyl)-4H-1-benzopyran-4-one]
- AUClast ([1]; intraduodenal, 20 mg/kg): 414 ± 111 kg·ng·h/mL/mg
- AUClast ([1]; intravenous, 1 mg/kg): 2533 ± 638 kg·ng·h/mL/mg
- AUC∞ ([1]; intravenous, 1 mg/kg): 2584 ± 639 kg·ng·h/mL/mg
- Solubility in water (in words) ([2]; background statement): practically insoluble
- Aqueous solubility (reported) ([2]; reported range): 0.01 to 0.04 µM
- C[Eq] (late kinetic solubility) ([3]; EtOH 100%): 13.79 mg×1^−1
- C[MSS] (early kinetic solubility) ([3]; EtOH 100%): 5.81 mg×1^−1
- ISI (Intrinsic Solubility Index) ([3]; EtOH 100%): 2.11
- ISI / late solubility profile, rating in words ([3]; EtOH 100%): good
- KSR (Kinetic Solubility ratio) ([3]; EtOH 100%): 0.42
- KSR, rating in words ([3]; EtOH 100%): acceptable
- MSS (Maximum Solubility Speed) ([3]; EtOH 100%): 23.81 mg×1^−1×min^−1
- MSS, rating in words ([3]; EtOH 100%): good
- ΔC [C, − CMSS] ([3]; EtOH 100%): 7.98 mg×1^−1
- C[Eq] (late kinetic solubility) ([3]; EtOH/dH2O 50/50 (vol/vol)): 12.87 mg×1^−1
- C[MSS] (early kinetic solubility) ([3]; EtOH/dH2O 50/50 (vol/vol)): 7.43 mg×1^−1
- ISI (Intrinsic Solubility Index) ([3]; EtOH/dH2O 50/50 (vol/vol)): 1.55
- ISI / late solubility profile, rating in words ([3]; EtOH/dH2O 50/50 (vol/vol)): good
- KSR (Kinetic Solubility ratio) ([3]; EtOH/dH2O 50/50 (vol/vol)): 0.58
- KSR, rating in words ([3]; EtOH/dH2O 50/50 (vol/vol)): acceptable
- MSS (Maximum Solubility Speed) ([3]; EtOH/dH2O 50/50 (vol/vol)): 12.18 mg×1^−1×min^−1
- MSS, rating in words ([3]; EtOH/dH2O 50/50 (vol/vol)): good
- ΔC [CEq − CMSS] ([3]; EtOH/dH2O 50/50 (vol/vol)): 5.44 mg×1^−1
- C[Eq] (late kinetic solubility) ([3]; EtOH/dH2O 75/25 (vol/vol)): 14.03 mg×1^−1
- C[MSS] (early kinetic solubility) ([3]; EtOH/dH2O 75/25 (vol/vol)): 8.52 mg×1^−1
- ISI (Intrinsic Solubility Index) ([3]; EtOH/dH2O 75/25 (vol/vol)): 1.49
- ISI / late solubility profile, rating in words ([3]; EtOH/dH2O 75/25 (vol/vol)): good
- KSR (Kinetic Solubility ratio) ([3]; EtOH/dH2O 75/25 (vol/vol)): 0.61
- KSR, rating in words ([3]; EtOH/dH2O 75/25 (vol/vol)): good
- MSS (Maximum Solubility Speed) ([3]; EtOH/dH2O 75/25 (vol/vol)): 19.67 mg×1^−1×min^−1
- MSS, rating in words ([3]; EtOH/dH2O 75/25 (vol/vol)): good
- ΔC [CEq − CMSS] ([3]; EtOH/dH2O 75/25 (vol/vol)): 5.51 mg×1^−1
- solubility ([4]; aqueous with cosolvent or surfactant or cyclodextrin, thermodynamic from solid, Acetone/Water (50:50)): < 10.1 mg/mL
- solubility ([4]; organic solvent or mixture, thermodynamic from solid, 1,4-dioxane): < 10.3 mg/mL
- solubility ([4]; organic solvent or mixture, thermodynamic from solid, 1-Butanol (BuOH)): < 10.5 mg/mL
- solubility ([4]; organic solvent or mixture, thermodynamic from solid, 2-Propanol (IPA)): < 10.5 mg/mL
- solubility ([4]; organic solvent or mixture, thermodynamic from solid, Acetone): ~17 mg/mL (≈ 62.9 mM)
- solubility ([4]; organic solvent or mixture, thermodynamic from solid, Acetone/IPA (50:50)): 20.1 mg/mL (≈ 74.4 mM)
- solubility ([4]; organic solvent or mixture, thermodynamic from solid, Acetonitrile (MeCN)): < 10.1 mg/mL
- solubility ([4]; organic solvent or mixture, thermodynamic from solid, Cyclohexane): < 10.7 mg/mL
- solubility ([4]; organic solvent or mixture, thermodynamic from solid, Dichloromethane (DCM)): < 10.3 mg/mL
- solubility ([4]; organic solvent or mixture, thermodynamic from solid, Diisopropylether (DIPE)): < 10.6 mg/mL
- solubility ([4]; organic solvent or mixture, thermodynamic from solid, Dimethyl sulfoxide (DMSO)): ~100 mg/mL (≈ 370 mM)
- solubility ([4]; organic solvent or mixture, thermodynamic from solid, Ethanol (EtOH)): < 10.8 mg/mL
- solubility ([4]; organic solvent or mixture, thermodynamic from solid, Heptane): < 10.5 mg/mL
- solubility ([4]; organic solvent or mixture, thermodynamic from solid, Methanol (MeOH)): < 10.6 mg/mL
- solubility ([4]; organic solvent or mixture, thermodynamic from solid, Methyl acetate (MeOAc)): < 10.3 mg/mL
- solubility ([4]; organic solvent or mixture, thermodynamic from solid, Methyl isobutyl ketone (MIBK)): < 10.1 mg/mL
- solubility ([4]; organic solvent or mixture, thermodynamic from solid, Methylethyl ketone (MEK)): < 10.8 mg/mL
- solubility ([4]; organic solvent or mixture, thermodynamic from solid, N-Methyl-2-pyrrolidinone (NMP)): ~68 mg/mL (≈ 252 mM)
- solubility ([4]; organic solvent or mixture, thermodynamic from solid, N-N-dimethylformamide (DMF)): ~100 mg/mL (≈ 370 mM)
- solubility ([4]; organic solvent or mixture, thermodynamic from solid, Octanol): < 10.5 mg/mL
- solubility ([4]; organic solvent or mixture, thermodynamic from solid, Tetrahydrofuran (THF)): 26.3 mg/mL (≈ 97.3 mM)
- solubility ([4]; organic solvent or mixture, thermodynamic from solid, Toluene): < 10.1 mg/mL
- solubility ([4]; organic solvent or mixture, thermodynamic from solid, Toluene/Dioxane (50:50)): < 10.1 mg/mL
- solubility ([4]; organic solvent or mixture, thermodynamic from solid, tert-Butylmethyl ether (TBME)): < 10.5 mg/mL
- Aqueous solubility ([5]; Water/slurry pH 4.5, ambient temperature): BDL
- Aqueous solubility ([5]; Water/slurry pH 6.7, ambient temperature): BDL
- Aqueous solubility ([5]; Water/slurry pH 7.5, ambient temperature): BDL
